# Measurements as given in patent US4122184A, “Benzimidazole insecticides” (priority 1977, dated 1978).
# “And” between values parts separate entries of the source, which are not always exact repeats. Equal entries are not always repeated.
# How the values were obtained:
# Boll Weevil = Boll Weevil Test; assay type: in vivo, Anthonomus grandis (Coleoptera); details: 48 h
# Source text: The procedure is identical to that employed for the Mexican bean beetle and the Southern armyworm, except that 10 adult boll weevils are placed on cotton leaves that have been dipped into formulations of the test compounds. The same rating scale is used.
# Bean Leaf Beetle [1] = assay: Field trial, stomach poison test; assay type: in vivo
# How it was run: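 Spray (10 psi) or dip leaves from infested plants in test solution; air-dry; put in Petri dish; add 5 or 10 insects; score mortality 0–9 at 24/48/72 h. 1–2 reps, usually 2–3 rates.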
# Bean Leaf Beetle [2] = assay: Field trial, contact poison test; assay type: in vivo
# How it was run: (§1)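 Contact spray, atomizer 10 psi, arm's length, several concentrations; infested plants in water bottles, stems wrapped in cellucotton, plants spaced apart. Scored 24, 48, 72 h; scale 0–9 by percent mortality.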
# [3] = system: Red-Legged Grasshopper Adults; assay: Field trial, contact poison test; assay type: in vivo
# How it was run: as §1
# [4] = system: Southern Corn Rootworm Adults; assay: Field trial, contact poison test; assay type: in vivo
# How it was run: as §1
# Yellow Mealworm Larvae = assay: Field trial, topical application; assay type: in vivo; parameters: key: 0 = 0-10% mortality, 9 = 91-100% mortality (0-9 scale)
# How it was run: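 1 μL benzimidazole solution of set microgram content applied topically to larvae or adults. Mortality read at 24, 48 and 72 h where applicable, rated 0-9 (0 = 0-10%, 9 = 91-100%); values are average mortality per concentration.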
# Mexican Bean Beetle = Mexican Bean Beetle Test; assay type: in vivo, Epilachna varivestis (Coleoptera); details: 48 h
# Description: Cuttings of four six-day old Bountiful snap bean plants containing two leaves with approximately 5 square inches of leaf surface, are placed in water. The leaves are sprayed to wetting with about 5-10 ml. of a formulation containing a pre-determined level of the test compound. Half of the formulation is sprayed on the top surface and half on the bottom surface of the leaf using a DeVilbiss atomizer at 10 psi held at a distance of about 18 inches from the leaf. After the leaves have dried, they are cut from the stem and placed separately in petri dishes. Ten third instar, nonmolting Mexican bean beetle larvae grown on Bountiful snap beans are placed on each leaf. Controls consist of two leaves sprayed with 5 ml. of a 500 ppm malathion formulation (reference standard), two leaves sprayed with the formulation without the active ingredient and two leaves are held as untreated controls. After 48 hours, a mortality count is made and the amount of feeding noted. Moribund larvae are counted as dead.
# Southern Armyworm = Southern Armyworm Test; assay type: in vivo, Prodenia eridania (Lepidoptera); details: 48 h
# Description: Ten uniform Southern armyworm larvae about 1-1.5 cm. in length, grown on Henderson lima beans, are placed on excized bean leaves in petri dishes. The bean leaves are obtained and sprayed with the insecticide in the same way as are the snap bean leaves in the Mexican bean beetle test. The reference standards in this instance are leaves sprayed with 5 ml. 100 ppm DDT solution. Mortality counts are made 48 hours after spraying and again moribund larvae are counted as dead. Missing larvae which have probably been eaten are considered alive. The same rating scale is used as in the Mexican bean beetle test.
# Two-spotted Spider Mite = Two-spotted Spider Mite test; assay type: in vivo, Tetranychus urticae (Acarina); details: 48 h
# Description: The procedure in this test is the same as that in the previous aphid test, except that about 100 two-spotted spider mites from a stock colony raised on squash plants are transferred to a cut squash cotyledon. The mortality is estimated 48 hours after spraying. The same rating scale is used.
# Milkweed Bug = Milkweed Bug Test; assay type: in vivo, Oncopeltis fasciatus (Hemiptera); details: 48 h
# Description: Ten adult milkweed bugs are chilled and placed in a test cage. The cages containing the bugs are sprayed with 5 ml. of a test formulation containing a pre-determined amount of the insecticide, using a DeVilbiss atomizer at 10 psi held 33 inches from the top of the cage. After the cage has been allowed to dry, the bugs are fed and watered for 48 hours. A formulation containing 500 ppm of malathion is used as a reference standard and two unsprayed cages are kept as controls. Mortality counts are made 48 hours after spraying. Moribund adults are considered dead. The same rating scale is employed as before.
# Oriental Cockroach = assay: Oriental Roach Test; assay type: in vivo, Blatta orientalis (Orthoptera); details: 24 h
# Description: A rearing pan of late instar (3-4 months old) roaches is placed in a cold room for about 1 hour. Ten nymphs are taken from the pan and placed in each cage and the caged insects are kept at 70°-80° F. for 1 hour. The test cages are then sprayed in the manner indicated above in the milkweed bug test using 5 ml. of a formulation containing a specified amount of the insecticide. The test cages are held for 72 hours during which time the cockroaches are neither fed nor watered. Controls consist of 2 unsprayed cages, two cages sprayed with the formulation alone and 2 cages with a formulation containing 1000 ppm of heptachlor. Mortality counts are made 24 hours after spraying by shaking the cages lightly. All cockroaches remaining in the bottom are counted as dead.
compound,measurement,setting,value
"O=[N+]([O-])c1cc(C(F)(F)F)cc2nc(C(F)(F)F)[nH]c12 [A, 2,6-bis(trifluoromethyl)-4-nitrobenzimidazole]",mortality rating,Boll Weevil; 5 ppm,7.5
same,mortality rating,Boll Weevil; 10 ppm,6.7
same,mortality rating,Boll Weevil; 25 ppm,8.8
same,mortality rating,Boll Weevil; 50 ppm,8.5
same,average mortality rating,Bean Leaf Beetle [1]; 10 ppm,0 (0-10 percent)
same,average mortality rating,Bean Leaf Beetle [1]; 25 ppm,0 (0-10 percent)
same,average mortality rating,Bean Leaf Beetle [1]; 50 ppm,1
same,average mortality rating,Bean Leaf Beetle [2]; 25 ppm,0 (0-10 percent)
same,average mortality rating,Bean Leaf Beetle [2]; 50 ppm,0 (0-10 percent)
same,average mortality rating,Bean Leaf Beetle [2]; 100 ppm,0 (0-10 percent)
same,average mortality rating,[3]; 10 ppm,3
same,average mortality rating,[3]; 25 ppm,4
same,average mortality rating,[3]; 50 ppm,4
same,average mortality rating,[4]; 25 ppm,4
same,average mortality rating,[4]; 50 ppm,6
same,average mortality rating,[4]; 100 ppm,8
same,average mortality rating,Yellow Mealworm Larvae; 0.03 μg/μl,3
same,average mortality rating,Yellow Mealworm Larvae; 0.07 μg/μl,5
same,average mortality rating,Yellow Mealworm Larvae; 0.15 μg/μl,5
"CCCCCCOC(=O)n1c(C(F)(F)F)nc2c([N+](=O)[O-])cc(C(F)(F)F)cc21 [E, n-hexyl 2,6-bis(trifluoromethyl)-4-nitro-1-benzimidazolecarboxylate]",mortality rating,Mexican Bean Beetle; 5 ppm,2.5
same,mortality rating,Mexican Bean Beetle; 10 ppm,7.5
same,mortality rating,Southern Armyworm; 500 ppm,5.0
same,mortality rating,Southern Armyworm; 1000 ppm,7.5
same,mortality rating,Two-spotted Spider Mite; 5 ppm,.5
same,mortality rating,Two-spotted Spider Mite; 10 ppm,8.5
same,mortality rating,Milkweed Bug; 10 ppm,.5
same,mortality rating,Milkweed Bug; 25 ppm,6.5
same,mortality rating,Milkweed Bug; 50 ppm,1.5
same,mortality rating,Oriental Cockroach; 500 ppm,8.5
same,mortality rating,Boll Weevil; 25 ppm,6.5
same,average mortality rating,Bean Leaf Beetle [1]; 10 ppm,0 (0-10 percent)
same,average mortality rating,Bean Leaf Beetle [1]; 25 ppm,1
same,average mortality rating,Bean Leaf Beetle [1]; 50 ppm,0 (0-10 percent)
same,average mortality rating,Bean Leaf Beetle [2]; 25 ppm,0 (0-10 percent)
same,average mortality rating,Bean Leaf Beetle [2]; 50 ppm,0 (0-10 percent)
same,average mortality rating,Bean Leaf Beetle [2]; 100 ppm,8
same,average mortality rating,[3]; 10 ppm,3
same,average mortality rating,[3]; 25 ppm,8
same,average mortality rating,[3]; 50 ppm,7
same,average mortality rating,[4]; 25 ppm,4
same,average mortality rating,[4]; 50 ppm,9 (91-100 percent mortality)
same,average mortality rating,[4]; 100 ppm,8
same,average mortality rating,Yellow Mealworm Larvae; 0.03 μg/μl,2
same,average mortality rating,Yellow Mealworm Larvae; 0.07 μg/μl,3
same,average mortality rating,Yellow Mealworm Larvae; 0.15 μg/μl,4
"CC(C)OC(=O)n1c(C(F)(F)F)nc2c([N+](=O)[O-])cc(C(F)(F)F)cc21 [I, isopropyl 2,6-bis(trifluoromethyl)-4-nitro-1-benzimidazolecarboxylate]",mortality rating,Mexican Bean Beetle; 25 ppm,6.5
same,mortality rating,Oriental Cockroach; 100 ppm,1.5
same,mortality rating,Oriental Cockroach; 250 ppm,5.5
same,mortality rating,Oriental Cockroach; 500 ppm,6.5
same,mortality rating,Boll Weevil; 25 ppm,8.5
same,mortality rating,Boll Weevil; 50 ppm,8.5
same,mortality rating,Boll Weevil; 100 ppm,7.5
same,average mortality rating,Bean Leaf Beetle [1]; 10 ppm,0 (0-10 percent)
same,average mortality rating,Bean Leaf Beetle [1]; 25 ppm,1
same,average mortality rating,Bean Leaf Beetle [1]; 50 ppm,3
same,average mortality rating,Bean Leaf Beetle [2]; 25 ppm,0 (0-10 percent)
same,average mortality rating,Bean Leaf Beetle [2]; 50 ppm,0 (0-10 percent)
same,average mortality rating,Bean Leaf Beetle [2]; 100 ppm,4
same,average mortality rating,[3]; 10 ppm,2
same,average mortality rating,[3]; 25 ppm,3
same,average mortality rating,[3]; 50 ppm,5
"mixture of N,N-dimethyl-4-nitro-2,6-bis(trifluoromethyl)thio-1-benzimidazolecarboxamide and N,N-dimethyl-7-nitro-2,5-bis(trifluoromethyl)thio-1-benzimidazolecarboxamide [P]",mortality rating,Mexican Bean Beetle; 10 ppm,0 (0-10)
same,mortality rating,Mexican Bean Beetle; 25 ppm,0 (0-10)
same,mortality rating,Mexican Bean Beetle; 50 ppm,4.5
same,mortality rating,Mexican Bean Beetle; 100 ppm,7 (71-80)
same,mortality rating,Mexican Bean Beetle; 250 ppm,7.5
same,mortality rating,Mexican Bean Beetle; 500 ppm,8.5
same,mortality rating,Mexican Bean Beetle; 1000 ppm,9 (91-100)
same,mortality rating,Southern Armyworm; 250 ppm,0 (0-10)
same,mortality rating,Southern Armyworm; 500 ppm,0 (0-10)
same,mortality rating,Southern Armyworm; 1000 ppm,3.5
same,mortality rating,Two-spotted Spider Mite; 1 ppm,3 (31-40)
same,mortality rating,Two-spotted Spider Mite; 5 ppm,4 (41-50)
same,mortality rating,Two-spotted Spider Mite; 10 ppm,4 (41-50)
same,mortality rating,Two-spotted Spider Mite; 25 ppm,6 (61-70)
same,mortality rating,Two-spotted Spider Mite; 50 ppm,7.0
same,mortality rating,Two-spotted Spider Mite; 100 ppm,7.5
same,mortality rating,Two-spotted Spider Mite; 250 ppm,8.5
same,mortality rating,Two-spotted Spider Mite; 500 ppm,9 (91-100)
same,mortality rating,Two-spotted Spider Mite; 1000 ppm,9 (91-100)
same,mortality rating,Milkweed Bug; 10 ppm,0 (0-10)
same,mortality rating,Milkweed Bug; 25 ppm,0 (0-10)
same,mortality rating,Milkweed Bug; 50 ppm,3.5
same,mortality rating,Milkweed Bug; 100 ppm,4.5
same,mortality rating,Milkweed Bug; 250 ppm,4 (41-50)
same,mortality rating,Milkweed Bug; 500 ppm,4 (41-50)
same,mortality rating,Milkweed Bug; 1000 ppm,2 (21-30)
same,mortality rating,Oriental Cockroach; 50 ppm,0 (0-10)
same,mortality rating,Oriental Cockroach; 100 ppm,2.5
same,mortality rating,Oriental Cockroach; 250 ppm,5.5
same,mortality rating,Oriental Cockroach; 500 ppm,9 (91-100)
same,mortality rating,Oriental Cockroach; 1000 ppm,8 (81-90)
same,mortality rating,Boll Weevil; 10 ppm,1.5
same,mortality rating,Boll Weevil; 25 ppm,5 (51-60)
same,mortality rating,Boll Weevil; 50 ppm,8 (81-90)
same,mortality rating,Boll Weevil; 100 ppm,9 (91-100)
same,mortality rating,Boll Weevil; 250 ppm,9 (91-100)
same,mortality rating,Boll Weevil; 500 ppm,9 (91-100)
same,mortality rating,Boll Weevil; 1000 ppm,9 (91-100)
"mixture of methyl 2,6-bis(trifluoromethyl)-4-nitro-1-benzimidazolecarboxylate and methyl 2,5-bis(trifluoromethyl)-7-nitro-1-benzimidazolecarboxylate",mortality rating,Mexican Bean Beetle; 5 ppm,0 (0-10)
same,mortality rating,Mexican Bean Beetle; 10 ppm,9 (91-100)
same,mortality rating,Mexican Bean Beetle; 25 ppm,9 (91-100)
same,mortality rating,Mexican Bean Beetle; 50 ppm,9 (91-100)
same,mortality rating,Mexican Bean Beetle; 100 ppm,9 (91-100)
same,mortality rating,Mexican Bean Beetle; 250 ppm,9 (91-100)
same,mortality rating,Mexican Bean Beetle; 500 ppm,9 (91-100)
same,mortality rating,Mexican Bean Beetle; 1000 ppm,9 (91-100)
same,mortality rating,Southern Armyworm; 1000 ppm,1 (11-20)
same,mortality rating,Two-spotted Spider Mite; 10 ppm,3 (31-40)
same,mortality rating,Two-spotted Spider Mite; 25 ppm,4 (41-50)
same,mortality rating,Two-spotted Spider Mite; 50 ppm,9 (91-100)
same,mortality rating,Two-spotted Spider Mite; 100 ppm,6 (61-70)
same,mortality rating,Two-spotted Spider Mite; 250 ppm,9 (91-100)
same,mortality rating,Two-spotted Spider Mite; 500 ppm,9 (91-100)
same,mortality rating,Two-spotted Spider Mite; 1000 ppm,9 (91-100)
same,mortality rating,Milkweed Bug; 25 ppm,5 (51-60)
same,mortality rating,Milkweed Bug; 100 ppm,8 (81-90)
same,mortality rating,Milkweed Bug; 250 ppm,9 (91-100)
same,mortality rating,Milkweed Bug; 500 ppm,9 (91-100)
same,mortality rating,Milkweed Bug; 1000 ppm,9 (91-100)
same,mortality rating,Oriental Cockroach; 50 ppm,0 (0-10)
same,mortality rating,Oriental Cockroach; 100 ppm,0 (0-10)
same,mortality rating,Oriental Cockroach; 250 ppm,5.5
same,mortality rating,Oriental Cockroach; 500 ppm,9 (91-100)
same,mortality rating,Oriental Cockroach; 1000 ppm,9 (91-100)
same,mortality rating,Boll Weevil; 5 ppm,0 (0-10)
same,mortality rating,Boll Weevil; 10 ppm,5.5
same,mortality rating,Boll Weevil; 25 ppm,8.5
same,mortality rating,Boll Weevil; 50 ppm,9 (91-100)
same,mortality rating,Boll Weevil; 100 ppm,9 (91-100)
same,mortality rating,Boll Weevil; 250 ppm,9 (91-100)
same,mortality rating,Boll Weevil; 500 ppm,9 (91-100)
same,mortality rating,Boll Weevil; 1000 ppm,9 (91-100)
same,average mortality rating,Bean Leaf Beetle [1]; 10 ppm,1
same,average mortality rating,Bean Leaf Beetle [1]; 25 ppm,0 (0-10 percent)
same,average mortality rating,Bean Leaf Beetle [1]; 50 ppm,1
same,average mortality rating,Bean Leaf Beetle [2]; 25 ppm,0 (0-10 percent)
same,average mortality rating,Bean Leaf Beetle [2]; 50 ppm,0 (0-10 percent)
same,average mortality rating,Bean Leaf Beetle [2]; 100 ppm,1
same,average mortality rating,[4]; 25 ppm,5 and 3
same,average mortality rating,[4]; 100 ppm,9 (91-100 percent mortality)
same,average mortality rating,Yellow Mealworm Larvae; 0.03 μg/μl,2
same,average mortality rating,Yellow Mealworm Larvae; 0.07 μg/μl,3
same,average mortality rating,Yellow Mealworm Larvae; 0.15 μg/μl,6
